# Laboratory results: PMC2362731, “Phase I study of Carzelesin (U-80,244) given (4-weekly) by intravenous bolus schedule” (British Journal of Cancer, 1999)
# System: patients with advanced solid tumours
# Test: Phase I toxicity of Carzelesin, 4-weekly 10 min IV infusion (NCI-CTC grading)
# Assay type: in vivo, human
# Experimental: Carzelesin is a cyclopropylpyrroloindole analogue which acts as a DNA-sequence-specific alkylating agent. In this phase I study, Carzelesin was given as a 4-weekly 10 min IV infusion to 51 patients with advanced solid tumours. Patients received a median of two courses (range 1–5) at one of nine dose levels: 24, 48, 96, 130, 150, 170, 210, 250 and 300 μg m^−2. According to NCI-CTC criteria, non-haematological toxicities (grade 1/2) included fever, nausea and vomiting, mucositis and anorexia, none of which was clearly dose related. The dose-limiting toxicity was haematological and consisted mainly of neutropenia and to a lesser extent thrombocytopenia. From the dose level 150 μg m^−2, the haematological toxicity (particularly thrombocytopenia) was delayed in onset, prolonged and cumulative in some patients. In several courses, double WBC nadirs occurred. The maximum tolerated dose for a single course was 300 μg m^−2. From the dose level 170 μg m^−2, the intended dose intensity could not be delivered to most patients receiving > 2 courses owing to cumulative haematological toxicity. The dose level with the best dose intensity for multiple courses was 150 μg m^−2. The pharmacokinetics of Carzelesin and its metabolites (U-76,073; U-76,074) have been established in 31 patients during the first course of treatment using a HPLC method. […] The concentration of U-76,074 (active metabolite) extended above the lower limit of quantitation (1 ng ml^−1) for short periods of time and only at the higher dose levels. There was no relationship between neutropenia and the AUC of the prodrug Carzelesin, but the presence of detectable plasma levels of the active metabolite U-76,074 was usually associated with a substantial decrease in ANC values. © 1999 Cancer Research Campaign
# Carzelesin (U-80,244, Figure 1A) is a cyclopropylpyrroloindole (CPI) prodrug analogue of CC-1065. […] CPI drugs are a class of compounds with unique DNA interactive properties. These agents fit into the minor groove region of DNA, and the CPI function in the molecule mediates a covalent binding to the N3 position of adenine in A-T rich regions, thus forming DNA adducts in a sequence selective fashion (Hurley et al, 1984; Reynolds et al, 1985). Three new CPIs have now been developed. […] Bizelesin differs from the classical CPI drugs in that it contains two chloromethyl functions, which are both converted (via intramolecular rearrangements) to the CPI alkyl- ating species that interact with DNA. Consequently, this agent is capable of forming DNA interstrand cross-links (Lee et al, 1991). […] Therefore, efforts were directed to modu- late the alkylation rate by the preparation of CPI prodrugs that would require chemical or enzymatic conversion. The activation of Carzelesin is a two-step reaction with hydrolysis of the phenyl- urethane substituent to form the intermediate compound U-76,073, followed by ring closure to form the active product U-76,074 (Figure 1B). […] This higher efficacy may be related to the pharmacologic features of the compound. […] Phase I study of Carzelesin (U-80,244) given (4-weekly) by intravenous bolus schedule A Awada1, CJA Punt2, MJ Piccart1, O Van Tellingen3, L Van Manen2, J Kerger1, Y Groot4, J Wanders4, J Verweij5 and DJTh Wagener2 1Institut Jules Bordet, Bd de Waterloo 125, 1000 Brussels, Belgium; 2University Hospital, Geert Grooteplein 8, Box 9101, 6500 HB Nijmegen, The Netherlands; 3The Netherlands Cancer Institute (Antoni van Leeuwenhoek Huis), Plesmanlaan 121, 1066 CX Amsterdam, The Netherlands; 4European Organization for Research and Treatment of Cancer - New Drug Development Office, PO Box 7057, Amsterdam, The Netherlands; 5Rotterdam Cancer Institute, Groene Hilledijk 301, 3075 EA Rotterdam, The Netherlands; on behalf of the EORTC Early Clinical Studies Group and EORTC NDDO Summary Carzelesin is a cyclopropylpyrroloindole analogue which acts as a DNA-sequence-specific alkylating agent. […]
# [1] = Table 4, dose levels 150-300 μg m-2 combined, 31 evaluable patients
structure (smiles),measurement,setting,value
CCN(CC)c1ccc2cc(C(=O)Nc3ccc4[nH]c(C(=O)N5C[C@@H](CCl)c6c5cc(OC(=O)Nc5ccccc5)c5[nH]cc(C)c65)cc4c3)oc2c1 [Carzelesin],"Thrombocytopenia grade 3/4, patients following the first course","Table 3, dose level 210 μg m-2, one patient had pre-existing grade 1 thrombocytopenia",0/1
same,"Neutropenia grade 3/4, No. of courses","Table 3, dose level 250 μg m-2",1/2
same,"Neutropenia grade 3/4, No. of patients (worst grade per patient)","Table 3, dose level 250 μg m-2",0/2
same,"Neutropenia grade 3/4, patients following the first course","Table 3, dose level 250 μg m-2",1/1
same,No. of toxic patients following the first course,"Table 3, dose level 250 μg m-2",2
same,"Thrombocytopenia grade 3/4, No. of courses","Table 3, dose level 250 μg m-2",1/1
same,"Thrombocytopenia grade 3/4, No. of patients (worst grade per patient)","Table 3, dose level 250 μg m-2",1/1
same,"Thrombocytopenia grade 3/4, patients following the first course","Table 3, dose level 250 μg m-2",1/0
same,No. of toxic patients/courses (grade 3/4 neutropenia and/or thrombocytopenia),"Table 3, dose level 250 μg m-2, 5/7 evaluable patients/courses",2/3
same,"Neutropenia grade 3/4, No. of courses","Table 3, dose level 300 μg m-2",1/2
same,"Neutropenia grade 3/4, No. of patients (worst grade per patient)","Table 3, dose level 300 μg m-2",1/2
same,"Neutropenia grade 3/4, patients following the first course","Table 3, dose level 300 μg m-2",1/2
same,No. of toxic patients following the first course,"Table 3, dose level 300 μg m-2",3
same,"Thrombocytopenia grade 3/4, No. of courses","Table 3, dose level 300 μg m-2",1/1
same,"Thrombocytopenia grade 3/4, No. of patients (worst grade per patient)","Table 3, dose level 300 μg m-2",1/1
same,"Thrombocytopenia grade 3/4, patients following the first course","Table 3, dose level 300 μg m-2",1/1
same,No. of toxic patients/courses (grade 3/4 neutropenia and/or thrombocytopenia),"Table 3, dose level 300 μg m-2, 4/4 evaluable patients/courses",3/3
same,"Anorexia, patients with worst CTC-grade 1",[1],5
same,"Anorexia, patients with worst CTC-grade 2",[1],5
same,"Anorexia, patients with worst CTC-grade 3",[1],0
same,"Anorexia, patients with worst CTC-grade 4",[1],0
same,"Bilirubin toxicity, patients with worst CTC-grade 2",[1],6
same,"Bilirubin toxicity, patients with worst CTC-grade 3",[1],1
same,"Bilirubin toxicity, patients with worst CTC-grade 4",[1],0
same,"Creatinine toxicity, patients with worst CTC-grade 1",[1],6
same,"Creatinine toxicity, patients with worst CTC-grade 2",[1],1
same,"Creatinine toxicity, patients with worst CTC-grade 3",[1],0
same,"Creatinine toxicity, patients with worst CTC-grade 4",[1],0
same,"Diarrhoea, patients with worst CTC-grade 1",[1],5
same,"Diarrhoea, patients with worst CTC-grade 2",[1],1
same,"Diarrhoea, patients with worst CTC-grade 3",[1],0
same,"Fatigue/asthenia, patients with worst CTC-grade 1",[1],3
same,"Fatigue/asthenia, patients with worst CTC-grade 2",[1],9
same,"Fatigue/asthenia, patients with worst CTC-grade 3",[1],3
same,"Fatigue/asthenia, patients with worst CTC-grade 4",[1],0
same,"Fever, patients with worst CTC-grade 1",[1],4
same,"Fever, patients with worst CTC-grade 2",[1],5
same,"Fever, patients with worst CTC-grade 3",[1],2
same,"Fever, patients with worst CTC-grade 4",[1],0
same,"Mucositis, patients with worst CTC-grade 1",[1],7
same,"Mucositis, patients with worst CTC-grade 2",[1],1
same,"Mucositis, patients with worst CTC-grade 3",[1],0
same,"Mucositis, patients with worst CTC-grade 4",[1],0
same,"Nausea, patients with worst CTC-grade 1",[1],11
same,"Nausea, patients with worst CTC-grade 2",[1],6
same,"Nausea, patients with worst CTC-grade 3",[1],2
same,"Nausea, patients with worst CTC-grade 4",[1],0
same,"Pain at the infusion site, patients with worst CTC-grade 1",[1],9
same,"Pain at the infusion site, patients with worst CTC-grade 2",[1],2
same,"Pain at the infusion site, patients with worst CTC-grade 3",[1],0
same,"Pain at the infusion site, patients with worst CTC-grade 4",[1],0
same,"Proteinuria, patients with worst CTC-grade 1",[1],3
same,"Proteinuria, patients with worst CTC-grade 2",[1],0
same,"Proteinuria, patients with worst CTC-grade 3",[1],0
same,"Proteinuria, patients with worst CTC-grade 4",[1],0
same,"Vomiting, patients with worst CTC-grade 1",[1],7
same,"Vomiting, patients with worst CTC-grade 2",[1],5
same,"Vomiting, patients with worst CTC-grade 3",[1],2
same,"Vomiting, patients with worst CTC-grade 4",[1],0
same,"Diarrhoea, patients with worst CTC-grade 4","Table 4, dose levels 150-300 μg m-2 combined, 31 evaluable patients, relation to Carzelesin was unlikely",1
same,patients who received red cell transfusions while on study,different dose levels from 130,Nine patients
same,patients with grade 4 myelotoxicity,"dose level 150, six evaluable patients",two patients out of six
same,episode of febrile neutropenia,dose level 250,One patient
same,patients with grade 4 neutropenia,dose level 300,two out of four
same,patients with grade 4 myelotoxicity,dose levels 96 and 130,two patients
same,grade 3 or 4 haematological toxicities,"first two dose levels (24, 48)",no grade 3 or 4 haematological toxici- ties were observed
same,"second drop in leucocyte and neutrophil count after apparent recovery, evaluable courses",from the dose level of 130,26%
same,"second drop in leucocyte and neutrophil count after apparent recovery, evaluable patients",from the dose level of 130,33%
same,"non-haematological toxicities, overall","grade 1-2, none clearly dose related",infrequent and mild
same,"flush reaction, patients",in vivo,five patients
same,haemorrhagic episodes during treatment,in vivo,No haemorrhagic episodes
same,dose-limiting toxicity,"mainly neutropenia, to a lesser extent thrombocytopenia",haematological
same,"median days to complete recovery, neutrophils","overall, median (range)",28 (20-35) days
same,"median days to complete recovery, platelets","overall, median (range)",33 (24-56) days
same,"median days to nadir, neutrophils","overall, median (range)",12 (8-14) days
same,"median days to nadir, platelets","overall, median (range)",20 (15-26) days
